Legend:
[1] = test system: SKOV-3 human ovarian tumor cells; conditions: mouse, in vivo, ip
Description: SKOV-3 ovarian tumor mice were prepared by injecting approximately 7×10^6 SKOV-3 human ovarian tumor cells into the peritoneal cavity of athymic (nu/nu) mice. Following a two-month incubation period, magnetic resonance imaging (MRI) was used to visualize the resultant tumors.
Biodistribution studies were performed 24 hours after injection by removing various organs from the mice and quantifying the ^166Ho content of each organ using a 2470 Wizard Automatic Gamma Counter (PerkinElmer Inc., Waltham, Mass.).

NSCLC A549-luc-c8 cells = test: Biodistribution after intravenous injection in NSCLC A549-luciferase tumor-bearing mice; assay type: in vivo, athymic (nu/nu) mice; conditions: one week after i.v. injection, 300 μCi (Example 14 particles)
Description: NSCLC A549-luciferase tumor-bearing mice were prepared by injecting approximately one million NSCLC A549-luc-c8 cells into the lung parenchyma of athymic (nu/nu) mice. Implantation and tumor progression were monitored by detecting luciferase bioluminescence following luciferin injections. FIG. 15A.

[2] = test system: SKOV-3 human ovarian tumor cells; test: Survival of SKOV-3 ovarian tumor mice after intraperitoneal treatment; assay type: in vivo, athymic (nu/nu) mice; conditions: 73-day period following implantation; i.p. injection twenty days after implantation (108.7 μCi for ^166Ho groups)
Description: An additional 14 SKOV-3 ovarian tumor mice received no treatment and served as the control group.
Statistical analyses were performed to compare the fraction of mice that survived over the course of the 73-day period following implantation. […] FIG. 6.

In the case of `CC(=O)C=C(C)[O][166Ho]([O]C(C)=CC(C)=O)[O]C(C)=CC(C)=O` [^166Ho(AcAc)3], the “^166Ho in tumors, percent initial dose per gram” value [1] is reported as 15.4±2.7 % ID/g, the “^166Ho in tumors, percent initial dose per gram” value (NSCLC A549-luc-c8 cells) is reported as “not retained” and the surviving animals [2] is reported as 66.7%.

From patent US9327038B2, “Stable activatable particles as radiotherapeutic agents for the treatment of disease” (The University of North Carolina at Chapel Hill, priority 2011, dated 2016)
